Reference: patent publication US7504407B2, “Compounds specific to adenosine A1 and A3 receptors and uses thereof” (OSI Pharmaceuticals, Inc., priority 2001, dated 2009)

Experiments:
[1] = target: T1, human A1 adenosine receptor (Homo sapiens, UniProt P30542); conditions: cited from earlier work
T1 sequence (P30542 1-326): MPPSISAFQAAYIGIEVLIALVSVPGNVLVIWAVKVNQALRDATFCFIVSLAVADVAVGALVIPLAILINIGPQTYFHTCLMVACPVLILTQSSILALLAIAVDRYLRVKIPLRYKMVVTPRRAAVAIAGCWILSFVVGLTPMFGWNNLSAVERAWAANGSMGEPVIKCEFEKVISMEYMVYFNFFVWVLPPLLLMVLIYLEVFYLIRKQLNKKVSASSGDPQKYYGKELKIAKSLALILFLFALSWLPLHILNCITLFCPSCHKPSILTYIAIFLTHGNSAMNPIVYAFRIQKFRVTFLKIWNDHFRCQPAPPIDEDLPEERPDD

[2] = target: T2, human A2a receptor subtype (Homo sapiens, UniProt P29274); assay: Adenosine 2a receptor subtype competition radioligand binding, [3H]CGS-21680, HEK293 membranes; conditions: @ 10 μM
T2 construct: expressed in transfected cells; host or cells: HEK-293 (Cadus clone #5)
T2 sequence (P29274 whole entry): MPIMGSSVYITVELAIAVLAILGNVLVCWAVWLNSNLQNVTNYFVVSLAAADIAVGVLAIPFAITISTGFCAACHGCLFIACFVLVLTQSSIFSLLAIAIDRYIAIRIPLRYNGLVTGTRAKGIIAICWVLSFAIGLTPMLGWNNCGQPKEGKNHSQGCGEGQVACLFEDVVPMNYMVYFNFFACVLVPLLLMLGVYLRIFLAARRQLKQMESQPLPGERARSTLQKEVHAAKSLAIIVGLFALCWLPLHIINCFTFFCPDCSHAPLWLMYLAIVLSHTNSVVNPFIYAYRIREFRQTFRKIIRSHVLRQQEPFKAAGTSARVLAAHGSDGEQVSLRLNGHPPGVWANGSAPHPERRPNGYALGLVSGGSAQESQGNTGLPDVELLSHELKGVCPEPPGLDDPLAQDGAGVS

[3] = target: T3, human A1 receptor subtype (Homo sapiens, UniProt P30542)
T3 sequence (P30542 1-326): T1 sequence (P30542 1-326)

[4] = target: T4, human A3 receptor subtype (Homo sapiens, UniProt P0DMS8); assay: Adenosine 3 receptor competition radioligand binding, [125I]AB-MECA, HEK293 membranes; conditions: for properties relative to compound 1720: A3 affinity, A3/A1 selectivity, solubility as in Table 3
T4 construct: expressed in transfected cells; host or cells: HEK293
T4 sequence (P0DMS8 1-318): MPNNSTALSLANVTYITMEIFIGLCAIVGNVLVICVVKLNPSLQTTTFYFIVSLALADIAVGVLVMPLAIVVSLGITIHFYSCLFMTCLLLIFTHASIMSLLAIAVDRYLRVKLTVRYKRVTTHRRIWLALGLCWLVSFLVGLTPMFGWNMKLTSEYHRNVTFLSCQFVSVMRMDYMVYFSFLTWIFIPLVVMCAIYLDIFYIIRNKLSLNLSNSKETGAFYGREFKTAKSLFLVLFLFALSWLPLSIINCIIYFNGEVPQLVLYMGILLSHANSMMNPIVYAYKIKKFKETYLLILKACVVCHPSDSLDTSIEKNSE

Structure (SMILES)	melting point [°C]	properties relative to compound 1720 [4]	Binding Affinity for A3 receptor relative to compound 1720 [4]	further results
CC(Cc1ccccc1)Nc1ncnc2c1ncn2C1OC(CO)C(O)C1O (single isomer, unassigned; (-)) [R-PIA, (−)-N6-(2-phenylisopropyl)-adenosine]	–	–	–	reported affinity [1]: approximately 50 nM
CNC(=O)NCCCNc1nc(-c2ccccc2)nc2[nH]c(C)c(C)c12 [Compound 1310]	–	–	–	% activity A2a [2]: 76%
NC(=O)[C@@H]1C[C@@H](O)CN1c1nc(-c2ccccc2)nc2[nH]ccc12 [Compound 1631, (2S, 4R)-4-Hydroxy-1-(2-phenyl-7H-pyrrolo[2,3-d]pyrimidin-4-yl)-pyrrolidine-2-carboxylic acid amide methane sulfonate]	–	–	–	A1 receptor binding affinity relative to reference compounds 1318 or 1319 [3]: equaled or surpassed
c1ccc(-c2nc(NCCc3cnc[nH]3)c3cc[nH]c3n2)cc1 [Compound 1720, [2-(3H-Imidazol-4-yl)-ethyl]-(2-phenyl-7H-pyrrolo[2,3-d]pyrimidin-4-yl)-amine]	234 to 235	–	–	A3 receptor binding affinity relative to reference compound 1308 ([4]; relative to reference compound 1308): greater than 10 times

More lines, main results first:

melting point [°C]	properties relative to compound 1720 [4]	Binding Affinity for A3 receptor relative to compound 1720 [4]	Structure (SMILES)	further results
–	superior	Higher	Clc1cccc(-c2nc(NCCc3cnc[nH]3)c3cc[nH]c3n2)c1 [Compound 1721]	–
199 to 200	–	–	Clc1cccc(-c2nc(NCCc3ccccn3)c3cc[nH]c3n2)c1 [Compound 1722]	–
183 to 185	–	–	Clc1cccc(-c2nc(NCCCn3ccnc3)c3cc[nH]c3n2)c1 [Compound 1723]	–
–	superior	Similar	Cc1cc2c(NCCc3c[nH]cn3)nc(-c3cccc(Cl)c3)nc2[nH]1 [Compound 1731]	–
–	superior	Similar	c1ccc(-c2nc(N3CCc4nc[nH]c4C3)c3cc[nH]c3n2)cc1 [Compound 1733]	–
